Measured values from ChEMBL document CHEMBL5321270, “Discovery of Pyrazolone Carbothioamide Derivatives as Inhibitors of the Pdr1-KIX Interaction for Combinational Treatment of Azole-Resistant Candidiasis” (J Med Chem, 2023).
Converted amounts (≈) assume the structure as drawn. The source made the active and inactive calls. The rule behind the calls is not given here.

How the values were obtained:
[1] = Inhibition of fluorescent probe FITC tagged PDR1-KIX domain (unknown origin) protein-protein interaction assessed as inhibition constant incubated for 2 hrs by fluorescence polarization binding assay
Nakaseomyces glabratus [2] = test: Antifungal activity against fluconazole-resistant Candida glabrata 0161 assessed as fungal growth inhibition incubated for 48 hrs by microplate reader assay; format: functional
Nakaseomyces glabratus [3] = test: Antifungal activity against fluconazole-resistant Candida glabrata 0161 assessed as fractional inhibitory concentration incubated for 48 hrs in presence of fluconazole by microplate reader assay; format: functional
Nakaseomyces glabratus [4] = test: Antifungal activity against fluconazole-resistant Candida glabrata 0161 assessed as fluconazole fractional inhibitory concentration incubated for 48 hrs in presence of fluconazole by microplate reader assay; format: functional
Nakaseomyces glabratus [5] = test: Synergistic antifungal activity against fluconazole-resistant Candida glabrata 0161 assessed as fractional inhibitory concentration index incubated for 48 hrs in presence of fluconazole by checkerboard microdilution method; format: functional
Nakaseomyces glabratus [6] = test: Antifungal activity against fluconazole-sensitive Candida glabrata 7669 assessed as fungal growth inhibition incubated for 48 hrs by microplate reader assay; format: functional, organism-based
Nakaseomyces glabratus [7] = test: Antifungal activity against fluconazole-resistant Candida glabrata 9256 assessed as fungal growth inhibition incubated for 48 hrs by microplate reader assay; format: functional
Nakaseomyces glabratus [8] = test: Antifungal activity against fluconazole-resistant Candida glabrata 8535 assessed as fungal growth inhibition incubated for 48 hrs by microplate reader assay; format: functional
Candida albicans [9] = test: Antifungal activity against Candida albicans 103 assessed as fungal growth inhibition incubated for 48 hrs by microplate reader assay; format: functional, organism-based
Candida albicans [10] = test: Antifungal activity against Candida albicans 5314 assessed as fungal growth inhibition incubated for 48 hrs by microplate reader assay; format: functional, organism-based
Candida albicans [11] = test: Antifungal activity against Candida albicans 0029 assessed as fungal growth inhibition incubated for 48 hrs by microplate reader assay; format: functional, organism-based
Candida albicans [12] = test: Antifungal activity against Candida albicans assessed as fungal growth inhibition incubated for 48 hrs by microplate reader assay; format: functional
Candida tropicalis = test: Antifungal activity against Candida tropicalis 10186 assessed as fungal growth inhibition incubated for 48 hrs by microplate reader assay; format: functional
Candida parapsilosis = test: Antifungal activity against Candida parapsilosis 20090 assessed as fungal growth inhibition incubated for 48 hrs by microplate reader assay; format: functional; settings: Lodderomyces parapsilosis
[Candida] auris [13] = Antifungal activity against Candida auris 0030 assessed as fungal growth inhibition incubated for 48 hrs by microplate reader assay; format: functional; settings: Candidozyma auris
[Candida] auris [14] = Antifungal activity against Candida auris 15448 assessed as fungal growth inhibition incubated for 48 hrs by microplate reader assay; format: functional; settings: Candidozyma auris
Aspergillus fumigatus = test: Antifungal activity against Aspergillus fumigatus 7544 assessed as fungal growth inhibition incubated for 48 hrs by microplate reader assay; format: functional
Nannizzia gypsea = test: Antifungal activity against Microsporum gypseum assessed as fungal growth inhibition incubated for 48 hrs by microplate reader assay; format: functional
Trichophyton rubrum = test: Antifungal activity against Trichophyton rubrum assessed as fungal growth inhibition incubated for 48 hrs by microplate reader assay; format: functional
Cryptococcus neoformans = test: Antifungal activity against Cryptococcus neoformans H99 assessed as fungal growth inhibition incubated for 48 hrs by microplate reader assay; format: functional

Row | SMILES | Ki [1] [µM] | MIC (Nakaseomyces glabratus [2]) [µg/mL] | FIC (Nakaseomyces glabratus [3]) [µg/mL] | fluconazole MIC in combination (Nakaseomyces glabratus [4]) [µg/mL] | fractional inhibitory concentration index (FICI) (Nakaseomyces glabratus [5]) | Activity (Nakaseomyces glabratus [6]) | Activity (Nakaseomyces glabratus [7]) | Activity (Nakaseomyces glabratus [8]) | Activity (Candida albicans [9]) | Activity (Candida albicans [10]) | Activity (Candida albicans [11]) | MIC (Nakaseomyces glabratus [7]) [µg/mL] | MIC (Nakaseomyces glabratus [8]) [µg/mL] | MIC (Candida albicans [12]) [µg/mL] | MIC (Candida tropicalis) [µg/mL] | MIC (Candida parapsilosis) [µg/mL] | MIC ([Candida] auris [13]) [µg/mL] | MIC ([Candida] auris [14]) [µg/mL] | MIC (Aspergillus fumigatus) [µg/mL] | MIC (Nannizzia gypsea) [µg/mL] | also measured
1 | N#CCC(=O)NNC(=S)Nc1ccc(N2CCOCC2)cc1 | 622 | 16 (≈ 50.1 µM) | 8 | 0.5 | 0.52 | inactive | inactive | inactive | inactive | inactive | inactive |  |  |  |  |  |  |  |  |  | 
2 | Nc1cc(=O)n(C(=S)Nc2ccc(Cl)cc2Cl)[nH]1 | 84.7 | 0.5 (≈ 1.65 µM) | 0.13 | 1 | 0.29 |  |  |  |  |  |  | 0.25 (≈ 0.825 µM) | 0.25 (≈ 0.825 µM) | 4 (≈ 13.2 µM) | 4 (≈ 13.2 µM) | 4 (≈ 13.2 µM) | 2 (≈ 6.6 µM) | 2 (≈ 6.6 µM) | 16 (≈ 52.8 µM) | 1 (≈ 3.3 µM) | MIC (Trichophyton rubrum): 1 µg/mL (≈ 3.3 µM); MIC (Cryptococcus neoformans): 0.063 µg/mL (≈ 0.208 µM)
3 | N#CCC(=O)NNC(=S)Nc1ccc2[nH]ccc2c1 | 470 | > 64 | 2 | 16 | 0.53 | inactive | inactive | inactive | inactive | inactive | inactive |  |  |  |  |  |  |  |  |  | 
4 | N#CCC(=O)NNC(=S)Nc1ccc(Cl)cc1Cl | 37.3 | 16 (≈ 52.8 µM) | 8 | 2 | 0.56 | inactive | inactive | inactive | inactive | inactive | inactive |  |  |  |  |  |  |  |  |  | 
5 | N#CCC(=O)NNC(=O)Nc1ccc(Cl)cc1 | 275 | 64 (≈ 253 µM) | 4 | 16 | 0.56 | inactive | inactive | inactive | inactive | inactive | inactive |  |  |  |  |  |  |  |  |  | 
6 | Nc1cc(=O)n(C(=S)Nc2ccc(Cl)c(Cl)c2)[nH]1 | 109 | 0.25 (≈ 0.825 µM) | 0.13 | 0.25 | 0.53 |  |  |  |  |  |  | 0.25 (≈ 0.825 µM) | 0.25 (≈ 0.825 µM) | 4 (≈ 13.2 µM) | 4 (≈ 13.2 µM) | 4 (≈ 13.2 µM) | 2 (≈ 6.6 µM) | 2 (≈ 6.6 µM) | 16 (≈ 52.8 µM) | 1 (≈ 3.3 µM) | MIC (Trichophyton rubrum): 1 µg/mL (≈ 3.3 µM); MIC (Cryptococcus neoformans): 0.063 µg/mL (≈ 0.208 µM)
7 | N#CCC(=O)NNC(=S)Nc1ccc(Cl)cc1 | 139 | 64 (≈ 238 µM) | 2 | 16 | 0.53 | inactive | inactive | inactive | inactive | inactive | inactive |  |  |  |  |  |  |  |  |  | 
8 | Nc1cc(=O)n(C(=S)Nc2cccc(Cl)c2Cl)[nH]1 | 27.2 | 0.25 (≈ 0.825 µM) | 0.063 | 2 | 0.31 |  |  |  |  |  |  | 0.25 (≈ 0.825 µM) | 0.25 (≈ 0.825 µM) | 4 (≈ 13.2 µM) | 4 (≈ 13.2 µM) | 4 (≈ 13.2 µM) | 2 (≈ 6.6 µM) | 2 (≈ 6.6 µM) | 16 (≈ 52.8 µM) | 1 (≈ 3.3 µM) | MIC (Trichophyton rubrum): 1 µg/mL (≈ 3.3 µM); MIC (Cryptococcus neoformans): 0.063 µg/mL (≈ 0.208 µM)
9 | N#CCC(=O)NNC(=S)Nc1cccc(Cl)c1Cl | 37.1 | 16 (≈ 52.8 µM) | 8 | 2 | 0.56 | inactive | inactive | inactive | inactive | inactive | inactive |  |  |  |  |  |  |  |  |  | 
10 | N#CCC(=O)NNC(=S)Nc1ccccc1Cl | 175 | 32 (≈ 119 µM) | 16 | 2 | 0.56 | inactive | inactive | inactive | inactive | inactive | inactive |  |  |  |  |  |  |  |  |  | 
11 | Nc1cc(=O)n(C(=S)Nc2ccc(I)cc2)[nH]1 | 137 | 0.25 (≈ 0.694 µM) | 0.13 | 0.25 | 0.53 |  |  |  |  |  |  | 0.25 (≈ 0.694 µM) | 0.25 (≈ 0.694 µM) | 4 (≈ 11.1 µM) | 4 (≈ 11.1 µM) | 4 (≈ 11.1 µM) | 2 (≈ 5.55 µM) | 2 (≈ 5.55 µM) | 16 (≈ 44.4 µM) | 1 (≈ 2.78 µM) | MIC (Trichophyton rubrum): 1 µg/mL (≈ 2.78 µM); MIC (Cryptococcus neoformans): 0.063 µg/mL (≈ 0.175 µM)
12 | Cc1ccc(NC(=S)NNC(=O)CC#N)cc1 | 476 | 64 (≈ 258 µM) | 2 | 16 | 0.53 | inactive | inactive | inactive | inactive | inactive | inactive |  |  |  |  |  |  |  |  |  | 
13 | N#CCC(=O)NNC(=S)Nc1ccc2c(c1)CCC2 | 256 | 16 (≈ 58.3 µM) | 8 | 1 | 0.53 | inactive | inactive | inactive | inactive | inactive | inactive |  |  |  |  |  |  |  |  |  | 
14 | Nc1cc(=O)n(C(=S)Nc2ccc(Cl)cc2)[nH]1 | 54.5 | 0.25 (≈ 0.93 µM) | 0.063 | 2 | 0.31 |  |  |  |  |  |  | 0.25 (≈ 0.93 µM) | 0.25 (≈ 0.93 µM) | 4 (≈ 14.9 µM) | 4 (≈ 14.9 µM) | 4 (≈ 14.9 µM) | 2 (≈ 7.44 µM) | 2 (≈ 7.44 µM) | 16 (≈ 59.5 µM) | 1 (≈ 3.72 µM) | MIC (Trichophyton rubrum): 1 µg/mL (≈ 3.72 µM); MIC (Cryptococcus neoformans): 0.063 µg/mL (≈ 0.234 µM)
15 | N#CCC(=O)NNC(=S)Nc1ccc(Cl)nc1 | 54.9 | 32 (≈ 119 µM) | 4 | 8 | 0.38 | inactive | inactive | inactive | inactive | inactive | inactive |  |  |  |  |  |  |  |  |  | 
16 | Nc1cc(=O)n(C(=S)Nc2ccccc2Cl)[nH]1 | 85.8 | 0.5 (≈ 1.86 µM) | 0.13 | 16 | 0.76 |  |  |  |  |  |  | 0.25 (≈ 0.93 µM) | 0.25 (≈ 0.93 µM) | 4 (≈ 14.9 µM) | 4 (≈ 14.9 µM) | 4 (≈ 14.9 µM) | 2 (≈ 7.44 µM) | 2 (≈ 7.44 µM) | 16 (≈ 59.5 µM) | 1 (≈ 3.72 µM) | MIC (Trichophyton rubrum): 1 µg/mL (≈ 3.72 µM); MIC (Cryptococcus neoformans): 0.063 µg/mL (≈ 0.234 µM)
17 | COc1ccc(NC(=S)NNC(=O)CC#N)cc1 | 348 | > 64 | 2 | 16 | 0.53 | inactive | inactive | inactive | inactive | inactive | inactive |  |  |  |  |  |  |  |  |  | 
18 | N#CCC(=O)NNC(=S)Nc1ccc(I)cc1 | 153 | 16 (≈ 44.4 µM) | 2 | 4 | 0.25 | inactive | inactive | inactive | inactive | inactive | inactive |  |  |  |  |  |  |  |  |  | 
19 | N#CCC(=O)NNC(=O)Nc1cccc(Cl)c1 | 119 | > 64 | 2 | 16 | 0.53 | inactive | inactive | inactive | inactive | inactive | inactive |  |  |  |  |  |  |  |  |  | 
